Reference: PMC3756485 (The Biochemical journal, 2012)
Each block holds one molecule with its values, some of them ahead of it.

Key:
[1] = target: T1, PvENT4 (Plasmodium vivax, UniProt A5K9X9); format: cell-based; conditions: 60 min; for Uptake of radiolabeled substrate relative to H2O-injected oocytes: 1.5 μM radiolabeled compound; for Saturability of concentration-dependent uptake (Michaelis-Menten): concentrations up to 10 mM
[2] = target: T2, PfENT4 (Plasmodium falciparum, UniProt Q8I2A8); assay: cell-based
[3] = target: T1, PvENT4; assay: cell-based
[4] = target: T2, PfENT4; format: cell-based; conditions: 60 min; for Uptake of radiolabeled substrate relative to H2O-injected oocytes: 1.5 μM radiolabeled compound; for Saturability of concentration-dependent uptake (Michaelis-Menten): concentrations up to 10 mM
[5] = tested on: P. falciparum parasites; conditions: read-out: IC50, in vitro growth; P. falciparum FCR-3 strain parasites; cited from earlier work
[6] = tested on: P. falciparum phosphodiesterase-1; conditions: cited from earlier work
[7] = tested on: PfENT1; conditions: cited from earlier work
[8] = read-out: Inhibition of adenine uptake

SMILES: O=c1cc[nH]c(=O)[nH]1 [uracil]
Uptake of radiolabeled substrate relative to H2O-injected oocytes [1]: less accumulation

SMILES: O=c1[nH]cnc2c([C@@H]3N[C@H](CO)[C@@H](O)[C@H]3O)c[nH]c12 [Immucillin-H]
Inhibition of [3H]adenine uptake at 7 mM compared with 2 mM ([2]; PfENT4 oocytes, 150 nM [3H]adenine, 60 min): significantly greater inhibition

SMILES: O=c1[nH]c(=O)c2[nH]c(=O)[nH]c2[nH]1 [urate]
Competition for adenine transport ([2]; PfENT4 oocytes, 150 nM [3H]adenine, 60 min, compound 500 μM): did not compete | Competition for adenine transport ([3]; PvENT4 oocytes, 150 nM [3H]adenine, 60 min, compound 500 μM): did not compete

SMILES: Nc1ncnc2c1ncn2[C@H]1C[C@H](O)[C@@H](CO)O1 [2′-deoxyadenosine]
Uptake of radiolabeled substrate relative to H2O-injected oocytes [1]: greater uptake | Uptake of radiolabeled substrate relative to H2O-injected oocytes [4]: greater uptake

SMILES: O=c1[nH]cnc2nc[nH]c12 [hypoxanthine]
Uptake of radiolabeled substrate relative to H2O-injected oocytes [1]: no observed uptake | Inhibition of adenine uptake ([2]; PfENT4 oocytes, 150 nM [3H]adenine, 60 min, concentration shown only in Figure 9): did not inhibit | Uptake of radiolabeled substrate relative to H2O-injected oocytes [4]: no observed uptake | Inhibition of adenine uptake ([3]; PvENT4 oocytes, 150 nM [3H]adenine, 60 min, concentration shown only in Figure 9): did not inhibit

SMILES: Nc1nc2c(ncn2[C@H]2C[C@H](O)[C@@H](CO)O2)c(=O)[nH]1 [2′-deoxyguanosine]
Uptake of radiolabeled substrate relative to H2O-injected oocytes [1]: greater uptake | Uptake of radiolabeled substrate relative to H2O-injected oocytes [4]: greater uptake

SMILES: Cc1c[nH]c(=O)[nH]c1=O [thymine]
Uptake of radiolabeled substrate relative to H2O-injected oocytes [1]: less accumulation

SMILES: CC(C)=CCNc1ncnc2nc[nH]c12 [isopentenyl adenine]
IC50 [5]: 8.34 µM

SMILES: Nc1ncnc2c1ncn2[C@@H]1O[C@H](CO)[C@@H](O)[C@H]1O [adenosine]
Uptake of radiolabeled substrate relative to H2O-injected oocytes [1]: greater uptake | Saturability of concentration-dependent uptake (Michaelis-Menten) ([1]; PvENT4 oocytes): not saturable | Uptake of radiolabeled substrate relative to H2O-injected oocytes [4]: greater uptake | Saturability of concentration-dependent uptake (Michaelis-Menten) ([4]; PfENT4 oocytes): not saturable

SMILES: C/C(=C\CNc1ncnc2[nH]cnc12)CO [trans-zeatin]
Ki [2]: 20 ± 3 µM | Ki [3]: 193 ± 21 µM

SMILES: Nc1ncnc2[nH]cnc12 [adenine]
Uptake of radiolabeled substrate relative to H2O-injected oocytes [1]: greater uptake | Saturability of concentration-dependent uptake (Michaelis-Menten) ([1]; PvENT4 oocytes): not saturable | Ki [2]: 7 ± 2 µM | Uptake of radiolabeled substrate relative to H2O-injected oocytes [4]: greater uptake | Saturability of concentration-dependent uptake (Michaelis-Menten) ([4]; PfENT4 oocytes): not saturable | Ki [3]: 6 ± 2 µM

SMILES: OCCN(CCO)c1nc(N2CCCCC2)c2nc(N(CCO)CCO)nc(N3CCCCC3)c2n1 [dipyridamole]
Inhibition of recombinant P. falciparum phosphodiesterase-1 [6]: inhibits | inhibition at 10 µM [2, 8]: ~80% | Sensitivity of PfENT1 to inhibitor [7]: insensitive | inhibition at 10 µM [3, 8]: ~80%

SMILES: Cc1cn([C@H]2C[C@H](O)[C@@H](CO)O2)c(=O)[nH]c1=O [thymidine]
Uptake of radiolabeled substrate relative to H2O-injected oocytes [1]: displayed uptake | Uptake of radiolabeled substrate relative to H2O-injected oocytes [4]: displayed uptake

Inhibition of adenine uptake ([2]; PfENT4 oocytes, 150 nM [3H]adenine, 60 min, compound 10 μM): insensitive | Inhibition of adenine uptake ([3]; PvENT4 oocytes, 150 nM [3H]adenine, 60 min, compound 10 μM): insensitive
SMILES: O=[N+]([O-])c1ccc(CSc2ncnc3c2ncn3[C@@H]2O[C@H](CO)[C@@H](O)[C@H]2O)cc1 [NBMPR, nitrobenzylmercaptopurineriboside]

SMILES: O=c1[nH]cnc2c1ncn2[C@@H]1O[C@H](CO)[C@@H](O)[C@H]1O [inosine]
Uptake of radiolabeled substrate relative to H2O-injected oocytes [1]: greater uptake | Uptake of radiolabeled substrate relative to H2O-injected oocytes [4]: greater uptake

SMILES: Nc1ncnc2c1ncn2[C@@H]1O[C@H](COP(=O)(O)O)[C@@H](O)[C@H]1O [AMP, adenosine monophosphate]
Transport of radiolabeled substrate ([1]; PvENT4 oocytes, 1.5 μM, in presence of 250 μM α,β-methyleneADP): not observed | Transport of radiolabeled substrate ([4]; PfENT4 oocytes, 1.5 μM, in presence of 250 μM α,β-methyleneADP): not observed | Substrate of PfENT1 [7]: not substrates
